Source: ChEMBL document CHEMBL6083277, “Discovery of SZJK-0421: A Novel Potent, Low Toxicity, Selective Second Generation of CRM1 Inhibitor for the Treatment of Both Hematological and Solid Tumors” (J Med Chem, 2024)
Calls of active or inactive are those of the source. The calls are words filed in the database; no cut-off is given here.

Assays:
[1] = molecular target: Exportin-1 (Homo sapiens) (UniProt O14980); experiment: Inhibition of CRM1 in human MM1.S cells assessed as accumulation of p53 protein level at 0.5 to 1 uM incubated for 24 hrs by Western blot analysis; format: cell-based; settings: dose 0.5-1 µM
MM1.S [2] = experiment: Induction of apoptosis in human MM1.S cells at 0.5 to 1 uM incubated for 48 hrs by Annexin V-FITC/PI staining based flow cytometry analysis; format: functional, cell-based; settings: dose 0.5-1 µM
[3] = Metabolic stability in monkey liver microsomes assessed as half life measured upto 60 mins in presence of NADPH by LC/MS-MS analysis; format: ADME, Macaca mulatta, Microsome; settings: rhesus monkey
MM1.S [4] = experiment: Inhibition of CRM1 protein expression in human MM1.S cells by Western blot analysis; format: functional, cell-based; settings: dose 0.25-1.25 µM
[5] = AUC (0 to infinity) in male Sprague-Dawley rat at 10 mg/kg, po measured upto 30 hrs by LC-MS/MS analysis; format: ADME, organism-based; settings: in vivo
[6] = Toxicity in NOD-SCID mouse assessed as reduction in cell density in tumor at 60 mg/kg, po measured every 2 days for 21 days by H and E staining based analysis; format: organism-based; settings: in vivo, 504 h, time 21 day

Exportin-1 (Homo sapiens), sequence (O14980 whole entry): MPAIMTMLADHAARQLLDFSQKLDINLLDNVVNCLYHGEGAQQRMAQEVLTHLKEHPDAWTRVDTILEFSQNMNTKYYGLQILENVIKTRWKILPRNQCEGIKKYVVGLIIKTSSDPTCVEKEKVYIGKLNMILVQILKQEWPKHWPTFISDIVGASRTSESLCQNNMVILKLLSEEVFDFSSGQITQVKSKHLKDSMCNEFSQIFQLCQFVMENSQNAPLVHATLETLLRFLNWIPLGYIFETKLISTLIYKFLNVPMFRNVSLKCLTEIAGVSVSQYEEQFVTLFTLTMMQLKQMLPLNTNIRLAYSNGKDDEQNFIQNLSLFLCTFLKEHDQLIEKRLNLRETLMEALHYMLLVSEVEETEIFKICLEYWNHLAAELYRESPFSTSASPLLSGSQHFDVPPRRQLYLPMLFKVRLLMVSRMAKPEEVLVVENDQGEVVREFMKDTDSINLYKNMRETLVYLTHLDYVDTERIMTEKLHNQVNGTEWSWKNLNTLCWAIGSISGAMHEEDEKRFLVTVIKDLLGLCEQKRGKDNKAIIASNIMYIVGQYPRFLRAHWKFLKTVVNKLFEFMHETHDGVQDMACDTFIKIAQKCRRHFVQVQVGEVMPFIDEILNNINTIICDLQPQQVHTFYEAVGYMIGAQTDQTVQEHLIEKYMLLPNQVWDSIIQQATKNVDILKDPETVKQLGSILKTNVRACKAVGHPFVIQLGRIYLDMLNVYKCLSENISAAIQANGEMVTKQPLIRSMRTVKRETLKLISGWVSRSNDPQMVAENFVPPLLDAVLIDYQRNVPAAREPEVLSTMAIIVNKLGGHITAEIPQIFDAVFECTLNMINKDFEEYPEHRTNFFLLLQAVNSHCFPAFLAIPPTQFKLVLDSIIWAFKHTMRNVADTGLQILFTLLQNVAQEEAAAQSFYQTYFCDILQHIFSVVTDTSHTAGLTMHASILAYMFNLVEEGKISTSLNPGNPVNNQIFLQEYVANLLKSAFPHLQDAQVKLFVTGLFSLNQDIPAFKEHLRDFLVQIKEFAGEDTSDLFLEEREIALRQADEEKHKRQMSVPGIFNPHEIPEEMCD

SMILES: CONC(=O)/C(=C/n1cnc(-c2cc(C(F)(F)F)cc(C(F)(F)F)c2)n1)c1cncnc1
- inhibition [1]: Active
- Activity (MM1.S [2]): Active
- half-life [3]: > 2 h
- inhibition (MM1.S [4]): Dose-dependent-effect
- AUC(0-inf) [5]: 4180 ng·h/mL
- Activity [6]: Non-toxic
